{"source": "patent US10626113B2", "about": "“Phosphodiesterase inhibitors and uses thereof” (THE TRUSTEES OF COLUMBIA UNIVERSITY IN THE CITY OF NEW YORK, priority 2012, dated 2020)", "key": {"PDE5": {"target": "PDE5 (Homo sapiens (Human), UniProt O76074)", "assay": "PDE5 inhibition assay (BPS PDE assay kit, fluorescence polarization)", "type": "biochemical", "conditions": "Table 1; 100 nM FAM-cGMP", "procedure": "Materials and Methods: PDE5 inhibition was assayed at BPS Bioscience (San Diego, Calif.) using BPS PDE assay kits (BPS Catalog number 60300, enzyme lot 090810). Test compounds were supplied as liquid solutions of 10 mM concentration in DMSO. Sildenafil, used as a standard was dissolved in DMSO. Intermediate dilutions were 10% DMSO in PDE assay buffer and tests at ranges from 0.1 to 100 nM. 0.1 ng of enzyme was used per reaction, and the substrate was 100 nM FAM-cGMP.\nAssay conditions: A series of dilutions of the test compounds were prepared with 10% DMSO in assay buffer and 5 μl of the dilution was added to a 50 μl reaction so that the final concentration of DMSO is 1% in all of reactions. The enzymatic reactions were conducted at room temperature for 60 minutes in a 50 μl mixture containing PDE assay buffer, 100 nM FAM-cAMP or 100 nM FAM-cGMP, a PDE enzyme, and the test compound. After the enzymatic reaction, 100 μl of a binding solution (1:100 dilution of the binding agent with the binding agent diluent) was added to each reaction and the reaction was performed at room temperature for 60 minutes. Fluorescence intensity was measured at an excitation of 485 nm and an emission of 528 nm using a Tecan Infinite M1000 microplate reader.\nData analysis: PDE activity assays were performed in duplicate at each concentration. Fluorescence intensity is converted to fluorescence polarization using the Tecan Magellan6 software. The fluorescence polarization data were analyzed using the computer software, Graphpad Prism. The fluorescence polarization (FPt) in absence of the compound in each data set was defined as 100% activity. In the absence of PDE and the compound, the value of fluorescent polarization (FPb) in each data set was defined as 0% activity. The percent activity in the presence of the compound was calculated according to the following equation: % activity=(FP−FPb)/(FPt−FPb)×100%, where FP=the fluorescence polarization in the presence of the compound.\nThe values of % activity versus a series of compound concentrations were then plotted using non-linear regression analysis of Sigmoidal dose-response curve generated with the equation Y=B+(T−B)/1+10^((LogEC50-X)×Hill Slope), where Y=percent activity, B=minimum percent activity, T=maximum percent activity, X=logarithm of compound and Hill Slope=slope factor or Hill coefficient. The IC50 value was determined by the concentration causing a half-maximal percent activity."}, "[1]": {"test_system": "LTP at the CA3-CA1 connection of hippocampal slices", "assay": "Long-term potentiation in hippocampal slices, compound in bath perfusion", "set-up": "species or system mice", "conditions": "50 nM bath perfusion"}, "APP/PS1 mice": {"test_system": "APP/PS1 mice", "assay": "Contextual fear conditioning (fear memory)", "type": "in vivo", "conditions": "3 mg/kg i.p. for 3 weeks", "procedure": "Fear conditioning was assessed as described in B. Gong, O. V. Vitolo, F. Trinchese, S. Liu, M. Shelanski, O. Arancio, Persistent improvement in synaptic and cognitive functions in an Alzheimer mouse model after rolipram treatment, J. Clin. Invest. 114 (2004) 1624-1634; F. Trinchese, S. Liu, F. Battaglia, S. Walter, P. M. Mathews, O. Arancio, Progressive age-related development of Alzheimer-like pathology in APP/PS1 mice, Ann. Neurol. 55 (2004) 801-814; and B. Gong, Z. Cao, P. Zheng, O. V. Vitolo, S. Liu, A. Staniszewski, D. Moolman, H. Zhang, M. Shelanski, O. Arancio, Ubiquitin hydrolase Uch-L1 rescues beta-amyloid-induced decreases in synaptic function and contextual memory, Cell 126 (2006) 775-788; each herein incorporated by reference in its entirety. […] Freezing behavior, defined as the absence of movements except for respiratory excursions, was scored using Freezeview software (Med Associates, St. Albans, Vt.). Contextual fear learning was evaluated 24 hrs after training by measuring freezing responses for 5 min in the same chamber where the mice were trained. Cued fear learning was evaluated 24 hrs after contextual testing. The mice were placed in a novel context for 2 min (pre-CS test), after which they were given a CS for 3 min (CS test), and freezing behavior was measured during the first 30 sec that mimic the CS-US conditioning and the remaining 2.5 min. […]"}, "[2]": {"assay": "Pharmacokinetic study in mice", "type": "in vivo", "conditions": "25 mg/kg i.p."}, "[3]": {"assay": "Acute toxicity study with histology", "type": "in vivo", "conditions": "120 or 240 mg/kg, i.p.", "from_the_text": "Brain, muscle, kidney, and liver were harvested from each mouse, and tissue from each organ was examined histologically by a board-certified pathologist for signs of toxicity."}}, "note": "Like-named read-outs stand apart in the source and are kept apart here."}
{"smiles": "COc1ccc(CNc2c3c(nc4ccc(C#N)cc24)CCN(C(C)=O)C3)cc1Cl", "note": "[Compound H, 2-acetyl-10-[(3-chloro-4-methoxybenzyl)amino]-1,2,3,4-tetrahydrobenzo[b][1,6]naphthyridine-8-carbonitrile]", "values": [{"measurement": "IC50", "setting": "PDE5", "result": 0.056, "unit": "nM"}, {"measurement": "effect on LTP of WT slices", "setting": "[1]", "result": "no effect"}, {"measurement": "effect on contextual fear memory of WT mice", "setting": "APP/PS1 mice", "result": "no effect"}, {"measurement": "Cmax, brain", "setting": "[2]; male C57Bl6 mice", "result": 492.25, "unit": "ng/g"}, {"measurement": "Tmax, brain", "setting": "[2]; male C57Bl6 mice", "result": 15, "unit": "min"}, {"measurement": "Tmax, plasma", "setting": "[2]; male C57Bl6 mice", "result": 15, "unit": "min"}, {"measurement": "t1/2 elimination half-life, brain", "setting": "[2]; male C57Bl6 mice", "result": 39, "unit": "min"}, {"measurement": "t1/2 elimination half-life, plasma", "setting": "[2]; male C57Bl6 mice", "result": 64.2, "unit": "min"}, {"measurement": "brain/plasma Cmax ratio", "setting": "[2]; male, C57Bl6, mouse, brain/plasma, ip, 25 mg/kg", "result": 0.31}, {"measurement": "MRT", "setting": "[2]; mouse, brain, ip, male C57Bl6 mice, read-out: MRT Mean Residence Time, brain", "result": 57, "unit": "min"}, {"measurement": "Cmax", "setting": "[2]; mouse, plasma, ip, male C57Bl6 mice", "result": 1570, "unit": "ng/mL"}, {"measurement": "MRT", "setting": "[2]; mouse, plasma, ip, male C57Bl6 mice, read-out: MRT Mean Residence Time, plasma", "result": 93.6, "unit": "min"}, {"measurement": "brain sections, CD45 immunostain", "setting": "[3]", "result": "no signs of inflammation"}, {"measurement": "brain sections, GFAP immunostain", "setting": "[3]", "result": "no signs of gliosis"}, {"measurement": "brain sections, H&E", "setting": "[3]", "result": "did not show any signs of toxicity"}, {"measurement": "brain sections, LFB-PAS stain", "setting": "[3]", "result": "no signs of demyelination"}, {"measurement": "kidney sections, H&E", "setting": "[3]", "result": "no toxicity"}, {"measurement": "kidney sections, PAS stain", "setting": "[3]", "result": "did not show any abnormalities in the glomerular basement membrane"}, {"measurement": "kidney sections, trichrome stain", "setting": "[3]", "result": "no fibrosis"}, {"measurement": "liver sections, H&E", "setting": "[3]", "result": "did not show any signs of toxicity"}, {"measurement": "liver sections, trichrome stain", "setting": "[3]", "result": "no fibrosis or cirrhotic liver disease"}, {"measurement": "muscle sections, H&E", "setting": "[3]", "result": "no signs of toxicity"}, {"measurement": "muscle sections, trichrome stain", "setting": "[3]", "result": "no muscle fibrosis"}]}
